Assay results from the METLIN SMRT retention time set (Domingo-Almenara et al. 2019).

Assay: gradient 5% acetonitrile 3 min, to 50% in 2 min, to 85% in 15 min, held 3 min, 100 µL/min
Conditions: column: Zorbax Extend-C18 2.1 x 50 mm; eluents: water / acetonitrile, 0.1% formic acid
Summary of the method: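 The mobile phases were water and acetonitrile, each with 0.1% formic acid, pumped at 100 μL/min through a Zorbax Extend-C18 column (2.1 × 50 mm, 1.8 μm). Pure standards were injected as mixtures of ~100 molecules and detected by a quadrupole time-of-flight mass spectrometer in positive and negative ionization mode. Retention time came from computationally picked adduct peaks, each inspected by hand.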

SMILES | RP-LC retention time
COc1cccc2c1ccn2CCNC(=O)C1CC(=O)N(c2n[nH]c3ccccc23)C1 (centres undefined) | 722 s
O=C(CCC1CCN(c2cc(NC3CC3)ncn2)CC1)NCc1cccs1 | 633 s
Cc1cc2[nH]c(C(=O)Nc3ccc(Cl)cc3F)c(CN3CCOCC3)c2s1 | 759 s
COc1cc(C(=O)NCC(c2ccc3c(c2)OCO3)N2CCOCC2)cc(OC)c1OC (centres undefined) | 617 s
Cc1ccc(N2CCC(NC(=O)CC3CCCC3)C2=O)cc1 (centres undefined) | 839 s
COc1ccc2c(c1)C1(CCN(C(=O)CCc3ccccc3)C1)C(=O)N2 (centres undefined) | 728 s
O=C(CCS(=O)(=O)c1ccccc1)N(Cc1ccccn1)Cc1ccco1 | 610 s
CCOCN(C(=O)Cn1c(CC)nc2ccccc21)c1c(C)cccc1CC | 780 s
Cc1cc(C)cc(S(=O)(=O)N2CCC3(CC2)NCCN=C3NCc2ccc(F)cc2)c1 | 753 s
CCN(CC)c1ncc(NC(=O)c2ccc(Br)cc2)cc1C(=O)O | 692 s
OC(CN1CCN(c2ccccn2)CC1)c1ccc2c(c1)OCO2 (centres undefined) | 539 s
CCN(CCN(C)C)C(=O)c1c2c(nc3ccccc13)C(=O)N(C1CCCCC1)C2 | 601 s
Cc1ccc(S(=O)(=O)N2CCC(CCNC(=O)NC3CCCC3)CC2)cc1 | 894 s
COc1ccc(CNC(=O)c2cn(C)nc2S(=O)(=O)N2CCC(C)CC2)cc1 | 904 s
CN1CCN(CCSC2Cc3cc(Cl)ccc3Sc3ccccc32)CC1 (centres undefined) | 761 s
CCOc1cc(CNC(=O)c2ccc3c(c2)N(C)C(=O)c2ccccc2O3)cc(OCC)c1OCC | 973 s
O=c1n(Cc2ccc3c(c2)OCO3)nc2c(S(=O)(=O)N3CCOCC3)cccn12 | 736 s
CCn1nc(C)c(CCNC(=O)CCCn2c(=O)c3cccn3c3ccc(Br)cc32)c1C | 730 s
CC(C(=O)N1CCN(C(=O)c2ccco2)CC1)n1c2ccccc2c2cnn(C)c(=O)c21 (centres undefined) | 746 s
CCn1c(=O)c(=O)n(CC(=O)N2CCN(c3ccccn3)CC2)c2ccccc21 | 563 s
Cc1cc(N(C)C)n2nc(CN3CCC(Cc4ccccc4)CC3)nc2n1 | 637 s
Cc1ncc2c(n1)C[C@@H]1CC[C@H]2N1S(=O)(=O)c1ccc(F)cc1 | 720 s
Cc1ccccc1CNC(=O)C1(C)CCN(S(=O)(=O)c2cccc(Cl)c2C)CC1 | 1090 s
CC(=O)N1C[C@@H]2CCCN3CCC[C@@H]([C@H]23)[C@H]1CCCC(=O)NCCC(C)C | 583 s
COc1cc(C2CC(=O)N(CC(=O)N3CCCC3)c3ccccc3S2)cc(OC)c1OC (centres undefined) | 792 s
COC(=O)c1ncn2c1C(=O)N(C1CC1)C(C)(C(=O)NCc1ccccc1Cl)C2 (centres undefined) | 658 s

SMILES | RP-LC retention time
COc1cnc(NS(=O)(=O)c2ccc(N)cc2)nc1 | 675 s
CC(=C/c1ccccc1)/C=C1/NC(=S)NC1=O | 880 s
CC(C)CCNC(=O)C1(C)CN(S(=O)(=O)c2ccccc2)CC(=O)N1c1ccc(F)cc1 (centres undefined) | 959 s
O=S(=O)(CCc1noc(-c2cccc(F)c2)n1)c1ccccc1 | 904 s
CCN(CC)S(=O)(=O)c1ccc2c(c1)N(CC(=O)NCCc1ccccc1)C(=O)C1CCCCN21 (centres undefined) | 1000 s
CCc1ccc(-c2cc(C(=O)N3CCN(c4cc(=O)n(C(C)C)c(=O)n4C(C)C)CC3)[nH]n2)cc1 | 946 s
CCn1cc(-c2nc(C)c(C(=O)Nc3ccccc3C)s2)c2cccnc21 | 980 s
CC(=O)Nc1onc(C)c1-c1ccc(C)c(S(=O)(=O)NCCc2ccc(S(N)(=O)=O)cc2)c1 | 663 s
CCOC(=O)c1cc(C)nc2c1c(=O)n(Cc1ccc(F)cc1)c(=O)n2C | 1070 s
CC(C)NC(=O)NCCN1CCN(c2ccccc2)CC1 | 569 s
CN1C(=O)c2cc(C(=O)N3CCCCCC3)nn2CC1(C)C(=O)NC1CCCC1 (centres undefined) | 714 s
Cc1ccc(CN2CCn3c(nn(C)c3=O)C2)nc1 | 530 s
COc1ccc(CNC(=O)C2(C)CCCN(S(=O)(=O)c3ccccc3Cl)C2)cc1 (centres undefined) | 932 s
CCC(=O)N1CCCCCCNC(=O)[C@@H]2CCC[C@@H]21 | 657 s
O=C(NC1CCCCC1)NC1CCN(C(=O)C2CC2)C1 (centres undefined) | 663 s
COc1ccc(Cl)cc1NC(=O)CSc1ccc(NC(=O)c2ccco2)nn1 | 851 s
O=c1n(Cc2cc(F)cc(F)c2)nc2c(S(=O)(=O)N3CCc4ccccc4C3)cccn12 | 966 s
COc1ccc(OC)c(CN2CCc3nc(N4CCOCC4)ncc3C2)c1 | 607 s
Cc1ccc2c(=O)c3c([nH]c2c1C)CCN(CC(=O)Nc1cc(F)cc(F)c1)C3 | 638 s
CN1CCN(c2nc3cc(C(F)(F)F)ccc3n3cccc23)CC1 | 768 s
COc1ccc(Cl)cc1NC(=O)c1cc(C)n2nc(C)cc2n1 | 1160 s
CCCNC(=O)C1CCN(c2ccc(SCC(=O)Nc3cc(OC)ccc3OC)nn2)CC1 | 662 s
CCOC(=O)CNC(=O)NCC(c1cccnc1)c1c[nH]c2ccccc12 (centres undefined) | 598 s
CCOC(=O)c1c(S(=O)(=O)N2CCC(C(=O)Nc3ccc(OC)cc3)CC2)c(C)n(C)c1C | 804 s
C#CCOCC1CCCN(S(=O)(=O)c2cc(F)ccc2OC)C1 (centres undefined) | 871 s
CC(C)CN1C(=O)c2cccn2CC1C(=O)NCCN(C)C1CCCCC1 (centres undefined) | 614 s

More lines, now with the values ahead:

RP-LC retention time | SMILES
777 s | Cn1nc(-c2nc(Cc3ccccc3)no2)c2c1CCN(C(=O)C1CCOC1)C2 (centres undefined)
856 s | CC1CCCN(c2ccc(-c3noc(CN4CCSCC4)n3)cn2)C1 (centres undefined)
838 s | CCOc1ccc(NC(=O)Cn2nc3cc(-c4ccccc4)nc(C)n3c2=O)cc1
591 s | Cc1ccc(CN2CCC(N3CC4(CCCCC4)C3c3ccncc3)CC2)o1 (centres undefined)
883 s | O=S(=O)(NCc1nc(-c2ccc(NS(=O)(=O)c3cccs3)cc2)no1)c1ccccc1
812 s | O=C(Cc1cccc(F)c1)N1CCC(n2nc(-c3ccsc3)ccc2=O)CC1
844 s | COc1ccc(CC(=O)Nc2ccc3c(c2)Sc2ncccc2C(=O)N3C(C)C)cc1
601 s | Cc1noc([C@@H]2CN(C(=O)c3ccsc3)C[C@H]2C(N)=O)n1
1060 s | CCc1nc(-c2csc(S(=O)(=O)N3CCCC(C(=O)NC4CCCCCC4)C3)c2)no1 (centres undefined)
888 s | C[C@H]1CN(C(=O)Nc2ccc3c(c2)CCC3)C[C@@H]1c1nc(-c2ccncc2)no1
1250 s | CC(C)(C)c1cc(C(=O)Nc2ccccc2)nc2ccnn12
616 s | c1cc(-c2noc(C3CC3)n2)ccc1OC1CNC1
842 s | O=S(=O)(c1ccc(-c2cnc(C3CCCC3)o2)s1)N1CCN(c2ccccn2)CC1
744 s | OC(CNCC(O)C1CCc2cc(F)ccc2O1)C1CCc2cc(F)ccc2O1 (centres undefined)
728 s | CCNC(=O)N1CC(c2nc(-c3ccccc3)no2)C2(CCOCC2)C1 (centres undefined)
885 s | CC(C)c1ccc(NC(=O)CN2CCN(C(=O)Nc3ccc(Br)cc3)CC2=O)cc1
793 s | Cn1c(=O)c(N2CCN(C(=O)c3cccs3)CC2)nc2cccnc21
614 s | COc1cc(OC)c(NC(=O)Nc2ccc3nc(N4CCN(C)CC4)cc(C)c3c2)cc1Cl
987 s | CCn1cc(-c2nc(C(=O)Nc3ccc(F)c(C)c3)cs2)c2cccnc21

RP-LC retention time | SMILES
791 s | Cn1cc(C2=CCN(C(=O)NCc3cccc(F)c3)CC2)c2cccnc21
965 s | CCc1ccc(NC(=O)N2CCc3c(c(-c4nnc(-c5ccc(F)cc5)o4)nn3C)C2)cc1
821 s | O=C(Nc1cc(C(F)(F)F)ccc1Cl)c1ccc(N2C(=O)CCC2=O)cc1
1140 s | O=C(Cn1nc2c3c4c(sc3ncn2c1=O)CCCC4)N1CCc2ccccc2C1
650 s | Cc1noc(C2CN(C(=O)Nc3ccccc3)CC23CCOCC3)n1 (centres undefined)
642 s | CCCN(C)c1nccn2c(=O)n(CC(=O)Nc3ccc4c(c3)OCCO4)nc12
1160 s | Cc1cc(NC(=O)c2c(O)c3cccnc3n(-c3ccccc3)c2=O)ccc1F
1140 s | O/N=C(/c1ccccc1)c1ccc2c3c(cccc13)CC2
690 s | Cc1oc(-c2cccc(Cl)c2)nc1CN1CCN(C(=O)NC2CCCC2)CC1
802 s | Cc1cc(C(=O)Nc2ccc(N3CCOCC3)cc2)nc2cc(-c3ccccn3)nn12
648 s | CCc1nccn1Cc1noc(-c2ccc(C)cc2)n1
836 s | O=C(Cn1cccc1-c1nnc(C2CCC2)o1)NCc1ccc2c(c1)OCO2
1050 s | Cc1ccc(-n2ccc(=O)c(-c3nc(-c4ccc(Cl)c(F)c4)no3)n2)cc1
975 s | Cc1ccc(-c2cn(CC(=O)N3CCN(c4ccc(C)cc4)CC3)c(=O)o2)cc1
735 s | CC(C)NC(=O)CSc1nnc2c3cc(-c4ccc(F)cc4)nn3ccn12
824 s | C=CCNC(=O)c1cn(-c2ccc(-c3nc(C(C)C)no3)cn2)cn1
916 s | CC(C)N1C(=O)c2cccnc2Sc2cc(NC(=O)c3ccc(F)cc3Cl)ccc21
644 s | CCn1nccc1C(=O)Nc1cccc(-c2nnc3n2CCCC3)c1
